Experimental data from patent US20210052701A1, “Methods of Treating Vascular Leakage Using CXCL12 Peptides” (The Medical College of Wisconsin, Inc., priority 2018, published 2021).
Entries after “also recorded” stand apart in the source; their conditions may differ.

Assays:
Type in all cases: cell-based, human
HULEC-5a = assay: Effects of CXCL12 and ubiquitin on thrombin-induced impairment of HULEC-5a monolayer permeability; settings: thrombin 50 nM, after 10 min 50 nM ligand
Protocol: FIGS. 4A-4D show effects of CXCL12 and ubiquitin on thrombin-induced impairment of HULEC-5a monolayer permeability. (A) HULEC-5a were grown to a confluent monolayer on collagen-coated permeable membranes and then exposed to different concentration of thrombin for 10 min, followed by the addition of FITC-dextran. Endothelial permeability was assessed by measuring the amount of FITC-dextran that permeated through the cell monolayer. No cells: 100% permeability. RFU: Relative fluorescence units. N=3 in quadruplicate. (B) Dose-response curves for thrombin-induced permeability, data from A. 100% permeability=permeability in the absence of HULEC-5a. Open squares: Permeability at t=55 min. Light grey squares: Permeability at t=135 min. Dark grey squares: Permeability at t=255 min. […] Endothelial permeability was assessed by measuring the amount of FITC-dextran that permeated through the cell monolayer. RFU: Relative fluorescence units. […]
In vitro vascular permeability assays—Permeability assays were obtained from Millipore (ECM642) and performed as per manufacturer's instructions. […] Fluorescein isothiocyanate (FITC)-dextran (20 μg/mL) was then added on top of the monolayer and the amount of FITC-dextran that permeated through the monolayer was quantified by measuring fluorescence in a Synergy 2 Multi-mode Microplate Reader (BioTek, Winooski, Vt.) at various time points over a 255 min time period.

hPPAEC [1] = assay: In vitro vascular permeability assay (FITC-dextran), hPPAEC monolayer, CXCR4/ACKR3 ligands without thrombin; settings: 50 nM ligand for 10 min, then FITC-dextran; no thrombin
Protocol: FIGS. 1A-1B show expression of CXCR4, ACKR3 and CXCR4:ACKR3 heteromers on hPPAEC and effects of CXCR4/ACKR3 ligands on hPPAEC monolayer permeability. (A) Detection of CXCR4, ACKR3 and CXCR4:ACKR3 heteromers on hPPAEC by PLA. Typical PLA images for the detection of individual receptors and CXCR4:ACKR3 heteromers. Images show merged PLA/40,6-diamidino-2-phenylindole dihydrochloride (DAPI) signals. Ctrl: Omission of one secondary antibody. (B) hPPAEC were grown to a confluent monolayer on collagen-coated permeable membranes. Cells were then exposed to vehicle or 50 nM of CXCR4/ACKR3 ligands for 10 minutes, as indicated, followed by the addition of FITC-dextran. Endothelial permeability was assessed by measuring the amount of FITC-dextran that permeated through the cell monolayer. N=3 in quadruplicate. No cells: 100% permeability, open squares. RFU: Relative fluorescence units. *: p<0.05 vs. vehicle (2-way ANOVA/Bonferroni's multiple comparison post hoc test).
Cells and cell lines—Human primary pulmonary artery endothelial cells (hPPAEC) (ATCC, PCS-100-022) and the human lung microvascular endothelial cell line HULEC-5a (ATCC, CRL-3244) were cultured in vascular cell basal medium (ATCC, PCS-100-030) with endothelial cell growth kit-VEGF (ATCC, PCS-100-041). The HTLA cell line, a HEK293 cell line stably expressing a tTA-dependent luciferase reporter and a β-arrestin2-TEV fusion gene, was generously provided by the laboratory of Dr. Bryan Roth and maintained in high glucose Dulbecco's Modified Eagle's Medium supplemented with 10% (vol/vol) FBS, 1× non-essential amino acids, 100 U/mL penicillin, 100 μg/mL streptomycin, 50 μg/mL hygromycin B, and 2 μg/mL puromycin. All cells were cultured at 37° C., 5% CO2 in a humidified atmosphere.
In vitro vascular permeability assays—Permeability assays were obtained from Millipore (ECM642) and performed as per manufacturer's instructions. In brief, 96-well collagen-coated permeability assay plates were pre-hydrated for 15 min, 5×10^5 cells were seeded on each well and grown to a confluent monolayer for 48 hours. Fluorescein isothiocyanate (FITC)-dextran (20 μg/mL) was then added on top of the monolayer and the amount of FITC-dextran that permeated through the monolayer was quantified by measuring fluorescence in a Synergy 2 Multi-mode Microplate Reader (BioTek, Winooski, Vt.) at various time points over a 255 min time period.

hPPAEC [2] = assay: Effects of CXCR4 agonists / CXCL12 variants on thrombin-induced impairment of hPPAEC monolayer permeability
Outline: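 Confluent hPPAEC monolayers on collagen-coated permeable membranes were exposed to 35 nM thrombin; 10 min later, agonists or CXCL12 variants (0.05–50 nM) were added, ± AMD3100 10 μM. FITC-dextran (20 μg/mL) crossing the monolayer was read by fluorescence over 255 min. % inhibition of hyperpermeability was taken at 255 min; N=3 in quadruplicate.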

## CXCL12: Wild-type CXCL12 (SEQ ID NO:1), cognate agonist of CXCR4 and ACKR3
HULEC-5a
  effect on thrombin-mediated impairment of HULEC-5a barrier function when added after thrombin: significantly reduced thrombin-mediated impairment of endothelial cell barrier function; also recorded: less efficacious in HULEC-5a cells than in hPPAEC
hPPAEC [1]
  effect on hPPAEC monolayer permeability: enhanced hPPAEC barrier function
hPPAEC [2]; 100 nM for 10 min, then thrombin (50 nM)
  effect of pre-treatment on thrombin-induced hyper-permeability of hPPAEC: significantly attenuated thrombin-induced hyper-permeability of hPPAEC; also recorded: more efficacious than ubiquitin
hPPAEC [2]; thrombin 35 nM, after 10 min CXCL12 or ubiquitin 50 nM, AMD3100 10 μM
  effect on thrombin-induced permeability of hPPAEC when added after thrombin: significantly attenuated thrombin-induced permeability of hPPAEC
